The test system of one series is C. albicans SC5314. Put plainly: CLSI broth microdilution susceptibility (Table 1). In kind it is cell-based. To be noted: 48 h, 35° C. How it is done: (§1) ICAN has 3 key moieties, namely the amino, naphthalene and isonitrile. To find out which ones of them are essential for the antifungal behavior and to design more efficient derivatives, comparative studies were carried out, where one of the moieties was exchanged or eliminated. All ICAN derivatives were tested against C. albicans SC5314, C. krusei ATCC 6258 and C. parapsilosis ATCC 22019. The antifungal agents were dissolved in 100% DMSO and diluted further in RPMI-1640 (with L-glutamine but without bicarbonate) and buffered to pH 7.0 with 0.165 M morpholinopropanesulfonic acid (MOPS). MICs were read visually after 48-h incubation at 35° C. using the partial (50%) inhibition (for ICAN derivatives) (PI) and total inhibition (for AMB and ICAN derivatives) (TI) criteria. MICs were determined at least twice.
(§2) The tested C. albicans, C. tropicalis, C. parapsilosis, C. glabrata and C. krusei ATCC strains and clinical isolates are listed in Table 2. MICs were determined according to the CLSI M27-A3 [22]. Antifungal agents were dissolved in 100% DMSO and diluted further in RPMI-1640 (with L-glutamine but without bicarbonate) (Sigma, Budapest, Hungary), and buffered to pH 7.0 with 0.165 M morpholinopropanesulfonic acid (MOPS; Sigma, Budapest, Hungary). The final concentration ranges used for AMB and ICAN derivatives were 0.125 to 4 μg/ml and 0.04 to 20 μg/ml, respectively. Yeast cell suspensions were prepared in RPMI 1640 medium and were adjusted to give a final inoculum concentration of 0.5×10^3 to 2.5×10^3 cells/ml. MICs were read visually after 48-h incubation at 35° C. using the partial (50%) inhibition (for ICAN derivatives) (PI) and total inhibition (for AMB and ICAN derivatives) (TI) criteria. MICs were determined at least twice. For amphotericin B isolates with MIC values of ≤2 mg/L were considered wild-types. [Pfaller M A, 2012]

For the next series, the system named is C. krusei ATCC 6258. Nature of the series: CLSI broth microdilution susceptibility (Table 1). In kind it is cell-based. Particulars: 48 h, 35° C. As to the method: as §1, §2
A general note: Dilution methods test growth across graded concentrations, often in twofold steps.

For series [1], the system named is C. parapsilosis ATCC 22019. Nature of the series: CLSI broth microdilution susceptibility (Table 1). In kind it is cell-based. To be noted: 48 h, 35° C. As to the method: as §1, §2
Series [2] has as its system C. albicans SC5314, C. krusei ATCC 6258 and C. parapsilosis ATCC 22019. Put plainly: CLSI broth microdilution, MIC summarised over the three Candida test strains. Particulars: value or range over the three Candida strains of Table 1, total inhibition. The format is cell-based. How it is done: as §1, §2
Another series concerns human cell cultures. Nature of the series: MTT bio assay cytotoxicity. In kind it is cell-based. Particulars: MTT bio assay technique. A general note: Tetrazolium dyes change colour on reduction, which living cells bring about.
Another series deals with C. albicans 3666. Put plainly: Time-lapse imaging of fungal growth in infected HaCat cultures. In kind it is cell-based. To be noted: 7.5 μg/ml, HaCat cells infected with C. albicans 3666, 24 h; DMSO control exceeded 1000%. An excerpt: As we mentioned in the Background art, studies have been carried out to successfully utilize 1-N-methylamino-5-isocyanonaphthalene (MICAN) as vital cell dye on different human cell lines [Nagy Z L, 2018]. […] Since these dyes are nonpolar, they are expected to easily bind to and stain the nonpolar chitin in the cell wall of different fungi species. We tested this assumption on common yeast from a local shop, and much to our surprise after staining, the yeast cells stopped growing and died in a short time. Repeated experiments led to the same conclusion; however, the applied dye concentration was well below the LD50 determined for human cells. […] It should be noted, however, that in the case of the untreated HaCat cells the fungal growth exceeded 1000% (24 h) calculated from the hyphal area (FIG. 1b, DMSO control). […]
Image analysis plug-ins were developed by a Java-based image processing software, The ImageJ v1.39d (US National Institutes of Health) program enabled the quantitative analysis of fungi. The software is requesting a set of data for the analysis from the user, along with the directory in which the bank of images to be analysed are contained. Image processing and quantitative image analysis were carried out as previously described [Nagy G, 2014]. […]

For the next series, the system named is HaCat cells. Put plainly: HaCat cell damage during time-lapse imaging. The format is cell-based, human. Particulars: under 24 hours, MICAN-treated infected cultures. An excerpt: (§3) As we mentioned in the Background art, studies have been carried out to successfully utilize 1-N-methylamino-5-isocyanonaphthalene (MICAN) as vital cell dye on different human cell lines [Nagy Z L, 2018]. […] Since these dyes are nonpolar, they are expected to easily bind to and stain the nonpolar chitin in the cell wall of different fungi species. We tested this assumption on common yeast from a local shop, and much to our surprise after staining, the yeast cells stopped growing and died in a short time. Repeated experiments led to the same conclusion; however, the applied dye concentration was well below the LD50 determined for human cells. We assumed that these compounds may have antifungal effect, therefore C. albicans, one of the most common human pathogenic fungi was selected for further tests. HaCat cell cultures (spontaneously transformed aneuploid immortal keratinocyte cells from adult human skin) were infected with C. albicans 3666 (same isolate as used in animal experiments) and were treated with different concentrations of MICAN dissolved in DMSO. The fungal growth was followed by time lapse imaging for 24 hours. […] It should be noted, however, that in the case of the untreated HaCat cells the fungal growth exceeded 1000% (24 h) calculated from the hyphal area (FIG. 1b, DMSO control).

For series [3], the system named is commercial strain of Saccharomyces cerevisiae. Nature of the series: Staining/growth of common yeast. In kind it is cell-based.
Text: as §3

Molecules are shown by their SMILES.

As for `[C-]#[N+]c1cccc2c(NC)cccc12` [MICAN, N-methyl-1-amino-5-isocyanonaphthalene], the MICPI with C. albicans SC5314 (partial (50%) inhibition) turned out to be 0.3 µg/mL; in the series with C. krusei ATCC 6258 (partial (50%) inhibition), 0.15 µg/mL; in series [1] (partial (50%) inhibition), 0.15 µg/mL. Moreover, the MICTI against C. albicans SC5314 (total inhibition) is 1.25 µg/mL; in the series with C. krusei ATCC 6258 (total inhibition) it was 1.25 µg/mL; in series [1] (total inhibition), 0.75 µg/mL; in series [2], 0.75 to 1.25 µg/mL. The same compound yielded an LD50 in the series with human cell cultures of 18 µg/mL. Further, the “fungal growth calculated from the hyphal area” value in the series on C. albicans 3666 was around 30%. For the same compound, the “damage of treated HaCat cells” value with HaCat cells is recorded as “no sign of damage”. For the same compound, the “antifungal effect on yeast” value in series [3] is “effective”.
